Assays:
Ferriprotoporphyrin IX = assay: Binding affinity to haematin assessed as inhibition of NP40-mediated beta-haematin formation after 4 hrs by pyridine-ferrochrome method
Plasmodium falciparum = assay: Antimalarial activity against chloroquine-resistant Plasmodium falciparum W2 infected in human erythrocytes assessed as parasite growth inhibition after 48 hrs by YOYO1 probe-based flow cytometric method; type: functional, cell-based; settings: W2, 48 h
Mus musculus = assay: Toxicity in Swiss albino mouse at 2000 mg/kg, po; type: organism-based; settings: in vivo
Plasmodium berghei = assay: Antimalarial activity against chloroquine-sensitive Plasmodium berghei infected in Swiss albino mouse assessed as chemosuppression at 200 mg/kg, po qd administered for 4 days by peter's test relative to control; type: functional; settings: 96 h

SMILES	IC50 (Ferriprotoporphyrin IX) [nM]	IC50 (Plasmodium falciparum) [nM]	Activity (Mus musculus)	inhibition in vivo at 200 mg/kg (Plasmodium berghei) [%]
CN(C)c1nc(Cl)nc(Nc2ccc(Nc3ccnc4cc(Cl)ccc34)cc2)n1	29700	380	Non-Toxic	95.2
CCN(CC)c1nc(Cl)nc(Nc2ccc(Nc3ccnc4cc(Cl)ccc34)cc2)n1	21600	268	Non-Toxic	95.5
CCCN(CCC)c1nc(Cl)nc(Nc2ccc(Nc3ccnc4cc(Cl)ccc34)cc2)n1	18600	8	Non-Toxic	91.5
Clc1ccc2c(Nc3ccc(Nc4nc(Cl)nc(N(c5ccccc5)c5ccccc5)n4)cc3)ccnc2c1	24900	255	Non-Toxic	97.4
Clc1ccc2c(Nc3ccc(Nc4nc(Cl)nc(N5CCNCC5)n4)cc3)ccnc2c1	23700	167	Non-Toxic	94.8
Clc1ccc2c(Nc3ccc(Nc4nc(Cl)nc(NCc5ccccc5)n4)cc3)ccnc2c1	21800	123	Non-Toxic	97
O=[N+]([O-])c1ccc(Nc2nc(Cl)nc(Nc3ccc(Nc4ccnc5cc(Cl)ccc45)cc3)n2)cc1	23000	145	Non-Toxic	97.4
Clc1ccc2c(Nc3ccc(Nc4nc(Cl)nc(N5CCCC5)n4)cc3)ccnc2c1	28100	119	Non-Toxic	97
COc1ccccc1Nc1nc(Cl)nc(Nc2ccc(Nc3ccnc4cc(Cl)ccc34)cc2)n1	21000	145	Non-Toxic	94.8
Nc1ccc(Nc2ccnc3cc(Cl)ccc23)cc1	32500	807	Non-Toxic	85.9
CC(C)N(c1nc(Cl)nc(Nc2ccc(Nc3ccnc4cc(Cl)ccc34)cc2)n1)C(C)C	> 500000	902	Non-Toxic	95.5
Clc1ccc2c(Nc3ccc(Nc4nc(Cl)nc(N5CCCCC5)n4)cc3)ccnc2c1	20600	118	Non-Toxic	94.1
CCN(c1ccccc1)c1nc(Cl)nc(Nc2ccc(Nc3ccnc4cc(Cl)ccc34)cc2)n1	29200	220	Non-Toxic	97
Clc1ccc2c(Nc3ccc(Nc4nc(Cl)nc(N5CCOCC5)n4)cc3)ccnc2c1	21100	138	Non-Toxic	97
CN(c1ccccc1)c1nc(Cl)nc(Nc2ccc(Nc3ccnc4cc(Cl)ccc34)cc2)n1	23700	269	Non-Toxic	91.1
C[C@@H]1CC[C@H]2[C@@H](C)C(=O)O[C@@H]3O[C@@]4(C)CC[C@@H]1[C@]32OO4 [ARTEMISININ]	–	15	–	–
CCN(CC)CCCC(C)Nc1ccnc2cc(Cl)ccc12 (stereo not drawn) [CHLOROQUINE]	27200	–	–	83
